The record followed here is PMC6384991, “5-Arylideneimidazolones with Amine at Position 3 as Potential Antibiotic Adjuvants against Multidrug Resistant Bacteria” (Molecules, 2019).

Data set [1] has as its system E. aerogenes Ea-294, Ea-298. In words: MIC (microdilution) against E. aerogenes strains devoid of AcrAB / TolC. The settings on record: Klebsiella aerogenes.
The next data set relates to E. aerogenes CM-64. In words: MIC (microdilution) against E. aerogenes CM-64 overexpressing AcrAB-TolC. To be noted: Klebsiella aerogenes. For orientation: In broth dilution the organism is exposed to a series of concentrations in liquid medium.
Another data set deals with E. aerogenes Ea-289. Description: MIC (microdilution) against E. aerogenes Ea-289 overexpressing AcrAB-TolC, porin-deficient. The settings on record: for MIC: Klebsiella aerogenes.
In data set [2] the test system is MRSA HEMSA 5. Description: Intrinsic antibacterial activity (MIC, microdilution) against MRSA HEMSA 5. The data set is classed as cell-based, S. aureus. The settings on record: for MIC: Staphylococcus aureus. The protocol:
(§1) Initially, 12 arylideneimidazolone derivatives were evaluated in vitro for their intrinsic antibacterial effect against two strains of S. aureus: the reference strain S. aureus ATCC 25923 and extremely-drug resistant (XDR) MRSA HEMSA 5 clinical isolate. This step of the study was necessary for: (i) elucidation whether molecules tested are devoid of antistaphylococcal activity and thus cannot become antimicrobial agents by themselves; and (ii) determination of the concentrations of compounds suitable for the further assay on their antibiotic adjuvant potency. In addition, the antistaphylococcal efficacy of oxacillin, which was paired with compounds tested, in the following assays was also assessed (Table 3).

A further data set deals with S. aureus ATCC 25923. Description: Intrinsic antibacterial activity (MIC, microdilution) against reference S. aureus strain. To be noted: Staphylococcus aureus. The data set is classed as cell-based. The protocol:
as §1

In data set [3] the test system is MRSA HEMSA 5. Description: MIC reduction assay: influence on oxacillin susceptibility in MRSA. The data set is classed as cell-based, S. aureus. The settings on record: MRSA HEMSA 5. The protocol:
The lack of a direct antibacterial activity of arylideneimidazolone derivatives tested allowed analyzing their anti-resistance potency in combination with the β-lactam antibiotic, oxacillin. […] The potential of compounds to become antibiotic adjuvants was evaluated by comparing the drug effectiveness in the presence and absence of compounds tested, thereby, by determining activity gain parameter A (Table 5). […] Slightly lower adjuvant-like activity was determined for the imidazolone derivatives 7 and 10 (A = 8–16). The efficacy of the remaining compounds was slightly less marked, however, also significant. Although compounds tested improved noticeably the antibacterial activity of oxacillin against MRSA clinical isolate, none of them restored the activity of the antibiotic (MIC < 2 µg/mL) against this highly resistant strain.

Data set [4] deals with AcrAB-TolC efflux pump in E. aerogenes Ea-289. In words: Real-time efflux (RTE) assay with 1,2'-dNA. To be noted: compound 100 µM; Ea-289 strain.
Where [5] appears, read: CM64, read-out: MIC (in brackets).
[6] abbreviates: EA289, read-out: MIC (in brackets).
Setting [7] is: MRSA HEMSA 5, compound alone, MH II broth, read-out: MIC Value.
The mark [8] stands for this setting: ATCC25923, S. aureus ATCC 25923, compound alone, MH II broth, read-out: MIC Value.

Where two headings read alike, the source gives them in different places. Residues, ends and D or L forms follow the SMILES beside them. *: point of attachment. βNA = c1ccc2cc(N*)ccc2c1

As a reminder, the melting point is the temperature of the solid-liquid transition. In general, MIC refers to the lowest concentration found to suppress growth.

The molecule `CN1CCN(CCCN2C(=O)/C(=C/c3ccc(Cl)cc3)N=C2N)CC1.Cl` (hydrate or solvate) [Compound 7, (Z)-5-(4-chlorobenzylidene)-2-amino-3-(3-(4-methylpiperazin-1-yl)propyl)-3H-imidazol-4(5H)-one hydrochloride] registered a melting point of 294 °C.

Consider `COc1ccc(/C=C2\N=C(N)N(CCCN3CCN(C)CC3)C2=O)cc1.Cl` (hydrate or solvate) [Compound 8, (Z)-5-(4-Methoxybenzylidene)-2-amino-3-(3-(4-methylpiperazin-1-yl)propyl)-3H-imidazol-4(5H)-one hydrochloride], for which the melting point is 262 °C.

For `O=C(N[C@H](CO)[C@H](O)c1ccc([N+](=O)[O-])cc1)C(Cl)Cl` [Chloramphenicol], the MIC in data set [1] is 200 µM; in data set [1] (read-out: MIC (in brackets)), 64 µg/mL; in the data set on E. aerogenes CM-64 (CM64) it was 1600 µM; in the data set with E. aerogenes CM-64 (setting [5]), 512 µg/mL; against E. aerogenes Ea-289 (EA289) it was 3200 µM; in the data set with E. aerogenes Ea-289 (setting [6]) it was 1020 µg/mL.

Regarding `CN1CCN(C2=N/C(=C\c3ccc(Cl)cc3)C(=O)N2)CC1` [Compound 6, (Z)-5-(4-chlorobenzylidene)-2-(4-methylpiperazin-1-yl)-3H-imidazol-4(5H)-one], the minimal inhibitory concentration (MIC) is 1000 µM with MRSA HEMSA 5 [2] (MRSA, read-out: MIC Value) and 2000 µM in the data set with S. aureus ATCC 25923 (ATCC25923, read-out: MIC Value). In the data set on MRSA HEMSA 5 [3], the “reduction of MIC of oxacillin” value worked out at 8 fold.

Regarding `CN1CCN(CCCN2C(=O)/C(=C/c3ccc(Cl)cc3)N=C2N)CC1.Cl` [Compound 7, (Z)-5-(4-chlorobenzylidene)-2-amino-3-(3-(4-methylpiperazin-1-yl)propyl)-3H-imidazol-4(5H)-one hydrochloride], the MIC in the data set on MRSA HEMSA 5 [2] (setting [7]) is 1000 µM; with S. aureus ATCC 25923 (setting [8]) it was 500 to 1000 µM. Also, the “reduction of MIC of oxacillin” value with MRSA HEMSA 5 [3] was found to be 16 fold.

For the molecule `COc1ccc(/C=C2\N=C(N)N(CCCN3CCN(C)CC3)C2=O)cc1.Cl` [Compound 8, (Z)-5-(4-Methoxybenzylidene)-2-amino-3-(3-(4-methylpiperazin-1-yl)propyl)-3H-imidazol-4(5H)-one hydrochloride], the MIC in the data set with MRSA HEMSA 5 [2] (setting [7]) and with S. aureus ATCC 25923 (setting [8]) was > 2000 µM in each case. In the data set with MRSA HEMSA 5 [3], the “reduction of MIC of oxacillin” value is 8 fold.

`CN1CCN(CCCN2C(=O)/C(=C/c3cc4ccccc4c4ccccc34)N=C2N)CC1.Cl` [Compound 10, (Z)-2-Amino-3-(3-(4-methylpiperazin-1-yl)propyl)-5-(phenanthren-9-ylmethylene)-3H-imidazol-4(5H)-one hydrochloride]: the melting point is 266 to 268 °C. Also, the MIC with MRSA HEMSA 5 [2] (setting [7]) is > 125 µM. The MIC in the data set on S. aureus ATCC 25923 (setting [8]) was > 125 µM. For the same molecule, the “Inhibitory efficiency (IE) of 1,2'-dNA efflux” value (“Inhibitory efficiency (IE)” for short) in data set [4] amounted to 60%. The same molecule showed an MIC in data set [1] of 500 µM. In addition, the MIC in the data set with E. aerogenes CM-64 (CM64) worked out at 1000 µM. In the data set with E. aerogenes Ea-289 (EA289), the minimal inhibitory concentration (MIC) came to 1000 µM.

The molecule `CN1CCN(CCCN2C(=O)/C(=C/c3c4ccccc4cc4ccccc34)N=C2N)CC1.Cl` [Compound 11, (Z)-2-Amino-5-(anthracen-10-ylmethylene)-3-(3-(4-methylpiperazin-1-yl)propyl)-3H-imidazol-4(5H)-one hydrochloride] yielded a melting point of 246 to 248 °C. Moreover, in the data set on MRSA HEMSA 5 [2] (setting [7]), the minimal inhibitory concentration (MIC) was 500 µM. In addition, in the data set with S. aureus ATCC 25923 (setting [8]), the minimum inhibitory concentration (MIC) is 500 µM. In data set [4], the “Inhibitory efficiency (IE)” value was 37%. Further, in data set [1], the MIC came to 500 µM. Also, the MIC against E. aerogenes CM-64 (CM64) was > 2000 µM. In addition, the MIC against E. aerogenes Ea-289 (EA289) is > 2000 µM. For the same molecule, the “increase of MIC for Ea-289 and CM-64 in comparison to Ea-298 and Ea-294” value in the data set on E. aerogenes Ea-289 (efflux overexpressing vs deficient strains) was ≥ 4 fold.

As for `CN1CCN(CCCN2C(=O)/C(=C/c3ccc(Oc4ccccc4)cc3)N=C2N)CC1` [Compound 12, (Z)-5-(4-Phenoxybenzylidene)-2-amino-3-(3-(4-methylpiperazin-1-yl)propyl)-3H-imidazol-4(5H)-one], the melting point lay in the range of 220 to 230 °C. Further, the MIC in the data set on MRSA HEMSA 5 [2] (MRSA, read-out: MIC Value) was in the range of 250 to 500 µM. The MIC in the data set with S. aureus ATCC 25923 (ATCC25923, read-out: MIC Value) stood at 250 µM. The “reduction of MIC of oxacillin” value with MRSA HEMSA 5 [3] is on record as 8 fold. The “Inhibitory efficiency (IE)” value in data set [4] was 64%. The minimal inhibitory concentration (MIC) in data set [1] stood at 1000 µM. This molecule also displayed a minimum inhibitory concentration (MIC) in the data set with E. aerogenes CM-64 (CM64) of 2000 µM. The molecule further returned a minimal inhibitory concentration (MIC) against E. aerogenes Ea-289 (EA289) of 2000 µM.

In turn, `CN1CCN(CCCN2C(=O)/C(=C/c3cccc4ccccc34)N=C2N)CC1.Cl` [Compound 15, (Z)-2-Amino-3-(3-(4-methylpiperazin-1-yl)propyl)-5-(naphthalen-1-ylmethylene)-3H-imidazol-4(5H)-one hydrochloride] came in with a melting point of 187 to 191 °C. In addition, the MIC with MRSA HEMSA 5 [2] (setting [7]) is 1000 to 2000 µM. The minimum inhibitory concentration (MIC) in the data set on S. aureus ATCC 25923 (setting [8]) stood at 1000 µM.

For the molecule `Cl.NC1=N/C(=C\c2c3ccccc3cc3ccccc23)C(=O)N1CCCN1CCOCC1` [Compound 16, (Z)-2-Amino-5-(anthracen-10-ylmethylene)-3-(3-morpholinopropyl)-3H-imidazol-4(5H)-one hydrochloride], the melting point was 244 to 246 °C. Also, the MIC with MRSA HEMSA 5 [2] (setting [7]) was > 125 µM. Further, the MIC in the data set on S. aureus ATCC 25923 (setting [8]) was > 125 µM. Moreover, the “Inhibitory efficiency (IE)” value in data set [4] is given as 44%. For the same molecule, in data set [1], the MIC is 2000 µM. Besides, the MIC against E. aerogenes CM-64 (CM64) was > 2000 µM. For the same molecule, in the data set on E. aerogenes Ea-289 (EA289), the MIC is > 2000 µM.

`C[C@H]1c2cccc(O)c2C(=O)C2=C(O)[C@]3(O)C(=O)C(C(N)=O)=C(O)[C@@H](N(C)C)[C@@H]3[C@@H](O)[C@@H]21` [Doxycycline]: the minimal inhibitory concentration (MIC) stood at 5 µM in data set [1]; 2 µg/mL in data set [1] (read-out: MIC (in brackets)); 72 µM against E. aerogenes CM-64 (CM64); 32 µg/mL in the data set with E. aerogenes CM-64 (setting [5]); 18 µM in the data set on E. aerogenes Ea-289 (EA289); 8 µg/mL in the data set on E. aerogenes Ea-289 (setting [6]).

`CC[C@H]1OC(=O)[C@H](C)[C@@H](O[C@H]2C[C@@](C)(OC)[C@@H](O)[C@H](C)O2)[C@H](C)[C@@H](O[C@@H]2O[C@H](C)C[C@H](N(C)C)[C@H]2O)[C@](C)(O)C[C@@H](C)C(=O)[C@H](C)[C@@H](O)[C@]1(C)O` [Erythromycin]: the minimum inhibitory concentration (MIC) was 5 µM in data set [1]; 4 µg/mL in data set [1] (read-out: MIC (in brackets)); 700 µM against E. aerogenes CM-64 (CM64); 512 µg/mL in the data set on E. aerogenes CM-64 (setting [5]); 350 µM with E. aerogenes Ea-289 (EA289); 256 µg/mL in the data set with E. aerogenes Ea-289 (setting [6]).

Turning to `CCn1cc(C(=O)O)c(=O)c2cc(F)c(N3CCNCC3)cc21` [Norfloxacin, norfloxacin], the MIC is 50 µM in data set [1]; 16 µg/mL in data set [1] (read-out: MIC (in brackets)); 6 µM with E. aerogenes CM-64 (CM64); 2 µg/mL in the data set on E. aerogenes CM-64 (setting [5]); 200 µM in the data set with E. aerogenes Ea-289 (EA289); 64 µg/mL with E. aerogenes Ea-289 (setting [6]).

Turning to `Cc1onc(-c2ccccc2)c1C(=O)N[C@@H]1C(=O)N2[C@@H]1SC(C)(C)[C@@H]2C(=O)O` [Oxacillin, reference compound], the MIC in the data set on MRSA HEMSA 5 [2] (setting [7]) was found to be 1210 µM; in the data set on MRSA HEMSA 5 [2] (MRSA HEMSA 5, read-out: MIC Value (in brackets)), 512 µg/mL; in the data set with S. aureus ATCC 25923 (setting [8]), 0.59 µM; with S. aureus ATCC 25923 (ATCC25923, S. aureus ATCC 25923, read-out: MIC Value (in brackets)), 0.25 µg/mL.

Turning to `NC(N)=NCCC[C@H](NC(=O)[C@@H](N)Cc1ccccc1)C(=O)Nc1ccc2ccccc2c1` [PaβN] (H-Phe-Arg-βNA), the MIC in data set [1] came to 125 µM; against E. aerogenes CM-64 (CM64), 500 µM; against E. aerogenes Ea-289 (EA289), 500 µM.

As to “(Z)-2-Amino-5-(biphen-4-ylmethylene)-3-(2-(4-methylpiperazin-1-yl)ethyl)-3H-imidazol-4(5H)-one hydrochloride [Compound 14]”, the “MIC Value” with MRSA HEMSA 5 [2] (MRSA HEMSA 5, compound alone, MH II broth) was 250 µM. Also, the “reduction of MIC of oxacillin” value in the data set on MRSA HEMSA 5 [3] is reported as 8 fold.
